We go through three compounds from BindingDB's records for PubMed 10604951 (University of Colorado, 2000).

Some results are limits rather than exact numbers.

In this assay the target is Glutamate receptor ionotropic, NMDA 1 (Rattus norvegicus, UniProt P35439).
Take `COC(=O)c1cc(NC(=O)N(c2ccccc2)c2ccccc2)c2c(Cl)cc(Cl)cc2n1` [DCUK-Ome]: the Ki – broadly, a dissociation constant, usually derived from enzyme kinetics or from competition with a known ligand – is > 10 µM. As for `O=C(O)c1cc(NC(=O)N(c2ccccc2)c2ccccc2)c2c(Cl)cc(Cl)cc2n1` [DCUKA], the Ki is > 10 µM. `NC(=O)N1c2ccccc2C=Cc2ccccc21` [5H-dibenzo[b,f]azepine-5-carboxamide]: the Ki was > 10 µM.
